Test results reported in PubChem BioAssay AID2765 (Broad Institute, 2010).
Active and inactive are the calls of the source.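 Rule for the calls: active = half-maximal concentration for the rise in caspase light signal at or below ten times the top tested dose; inconclusive = flat fit between 30% and 70% activity, or unreliable curve fit; inactive = the rest.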

Test system: MEF A1-2A-BIM cells, caspase 3/7 luminescence, 3 h
Experiment: caspase activation in A1-2A-BIM MEF cells, dose response, A1 inhibitor project, cell-based, luminescence, retest (AID 2765)

Cc1c(Nc2nc3ccccc3nc2NS(=O)(=O)c2cccc(Cl)c2)c(=O)n(-c2ccccc2)n1C
EC50: > 35 µM (inactive)

NS(=O)(=O)c1ccc(NC(=O)CN2CCc3ccccc32)cc1
EC50: > 35 µM (inactive)

COc1ccc(CCNC(=O)CSc2nc(-c3ccc(OC)c(OC)c3)ccc2C#N)cc1
EC50: > 35 µM (inactive)

CCc1ccccc1NC(=O)CN(C)C(=O)Cn1ncc(Cl)c(Cl)c1=O
EC50: > 35 µM (inactive)

CC[C@H]1CN2CCc3cc(OC)c(OC)cc3[C@@H]2C[C@@H]1C[C@H]1NCCc2cc(OC)c(OC)cc21
EC50: > 35 µM (inactive)

COc1ccc2[nH]c3c(=O)n(/N=C/[C@H]4C(C)C=C(C)CC4C)c(=O)[nH]c3c2c1 (stereo not given in full)
EC50: 16 µM

Cc1ccc(CSc2ncnc3c2cnn3-c2ccccc2)cc1
EC50: > 35 µM (inactive)

COc1ccc([C@H]2CC(=O)C=C(c3ccccc3C(F)(F)F)C2)cc1
EC50: > 35 µM (inactive)

CCOc1ccccc1NC(=O)c1nc(S(=O)(=O)Cc2cccc(C)c2)ncc1Cl
EC50: > 35 µM (inactive)

CC(C)N=c1scc(-c2ccco2)n1/N=C/c1ccc(O)c(O)c1
EC50: > 35 µM (inactive)

Cc1cccc(C)c1NC(=O)C(Cl)C(=O)c1ccccc1 (stereo not given)
EC50: > 35 µM (inactive)

O=C(CN1C(=O)COc2ccccc21)NCCCN1CCc2ccccc2C1
EC50: > 35 µM (inactive)

CCn1c(CNc2ccc(F)cc2)nnc1SCC(=O)Nc1ccccc1OC
EC50: > 35 µM (inactive)

COc1ccccc1NC(=O)c1ccc(S(=O)(=O)N2CCCC2)cc1
EC50: > 35 µM (inactive)

O=C(NNC(=O)c1cc(C(F)(F)F)cc(C(F)(F)F)c1)c1ccc(Cl)cc1
EC50: > 35 µM (inactive)

Cc1ccc(S(=O)(=O)c2nnn3c2nc(Nc2cccc(C)c2)c2ccccc23)cc1
EC50: > 35 µM (inactive)

COc1cc(/C=C/[N+](=O)[O-])ccc1OC(=O)c1cccnc1
EC50: 12.5 µM

O=[N+]([O-])c1ccc(N2CCCC2)c(F)c1Br
EC50: > 35 µM (inactive)

O=C(CN(c1ccc(Br)cc1)S(=O)(=O)c1ccc(Cl)c([N+](=O)[O-])c1)NCCc1ccccc1
EC50: > 35 µM (inactive)

COC(=O)c1ccc(C(=O)OC)c(NC(=O)CSc2ccccn2)c1
EC50: > 35 µM (inactive)

CCOC(=O)C(C(=O)OCC)C(C(=O)OCC)N1CCOCC1 (stereo not given)
EC50: > 35 µM (inactive)

CN(C)C(=O)[C@@H]1C[C@H]1[C@@H](NC(=O)OCc1ccccc1)c1ccccc1
EC50: > 35 µM (inactive)

COc1ccccc1N1CCN(C(c2ccccc2)c2nnnn2CCc2ccccc2)CC1 (stereo not given)
EC50: > 35 µM (inactive)

CC(=O)Nc1ccc(NC(=O)c2cc(C)nn2-c2ccccc2)cc1
EC50: > 35 µM (inactive)

Cc1cc(N2C(=O)CCC2=O)n(-c2ccccc2)n1
EC50: > 35 µM (inactive)

CC(=O)Nc1ccc(NC(=O)C(C)OC(=O)/C=C/c2cn(-c3ccccc3)nc2-c2cccnc2)cc1 (stereo not given)
EC50: 17.1 µM

COc1ccc(CNC(=O)CN(Cc2ccc(Cl)cc2)S(=O)(=O)c2ccccc2)cc1
EC50: > 35 µM (inactive)

C[C@H](NC(=O)OC(C)(C)C)C(=O)NCC1CCC(C(=O)N[C@@H](Cc2ccccc2)C(=O)O)CC1 (stereo not given in full)
EC50: > 35 µM (inactive)

Cc1cc(Oc2ccc(=O)[nH]n2)nc(Cl)n1
EC50: > 35 µM (inactive)

O=C1C2C3C=CC(CO)(O3)C2C(=O)N1c1ccc(-c2ccccc2)cc1 (stereo not given)
EC50: > 35 µM (inactive)

O=C1C(Cc2ccccc2)SC(=Nc2ccccc2)N1c1ccccc1 (stereo not given)
EC50: > 35 µM (inactive)

CCCc1ccc(OCc2ccc(C(=O)N/N=C/c3cccc([N+](=O)[O-])c3)o2)c(OC)c1
EC50: 7.22 µM

CCN(CC)S(=O)(=O)c1cc(NC(=O)C2Cc3ccccc3C(=O)O2)ccc1C (stereo not given)
EC50: > 35 µM (inactive)

O=C(Nc1ccc(S(=O)(=O)N2CCOCC2)cc1)c1ccco1
EC50: > 35 µM (inactive)

CCc1nnc(NC(=O)CSc2nc(-c3ccccc3)cc(-c3ccc(F)cc3)c2C#N)s1
EC50: 24.2 µM

O=C(CCC1N=C2c3ccccc3N=C(SCC(=O)NCC3CCCO3)N2C1=O)NCc1ccc(F)cc1 (stereo not given)
EC50: > 35 µM (inactive)

COc1ccc(OC)c(NC(=O)CSc2nnc(CNC(=O)COc3ccc(Cl)cc3)o2)c1
EC50: > 35 µM (inactive)

O=C(NCCCN1CCCCC1)c1ccc2c(c1)NC(=O)c1ccccc1S2
EC50: > 35 µM (inactive)

CC(C)CN(C(=O)C1CSC2(C)CCC(=O)N12)c1c(N)n(Cc2ccccc2)c(=O)[nH]c1=O (stereo not given)
EC50: > 35 µM (inactive)

NC(=O)c1ccc[n+](CC(=O)NCc2ccc(Cl)cc2)c1
EC50: > 35 µM (inactive)

CCOCCCNC(=O)c1ccc2c(c1)N=C(CC)c1cc(Br)ccc1S2
EC50: > 35 µM (inactive)

CCSc1nc(NCCN(C)C)c2c3c(sc2n1)COC(C)(CC)C3 (stereo not given)
EC50: > 35 µM (inactive)

O=C(Cc1ccccc1)N1CCc2[nH]nc(-c3ccccc3)c2C1
EC50: > 35 µM (inactive)

N#C/C(=C\c1ccc(OCc2ccccc2)cc1)C(=O)Nc1nc2c(s1)CCN(Cc1ccccc1)C2
EC50: > 35 µM (inactive)

COC(=O)c1ccc(CNC(=O)C2CCC(=O)N(CCc3ccccc3)C2)cc1 (stereo not given)
EC50: > 35 µM (inactive)

CCN(CC)c1ncnc2c1cnn2Cc1ccc(Cl)cc1
EC50: > 35 µM (inactive)

Cc1ccc(S(=O)(=O)NCC(=O)OC2CCOC2=O)cc1 (stereo not given)
EC50: > 35 µM (inactive)

CN(CC(O)COC(c1ccccc1)c1ccccc1)C1CCCCC1 (stereo not given)
EC50: > 35 µM (inactive)

CCOC(=O)CSCC(=O)N1N=C(c2cccs2)CC1c1ccc(F)cc1 (stereo not given)
EC50: > 35 µM (inactive)

CCOC(=O)c1ccc(NS(=O)(=O)c2ccc3c(c2)CCCN3C(C)=O)cc1
EC50: > 35 µM (inactive)

O=C1NCCCC1C(=O)N/N=C/c1cccc([N+](=O)[O-])c1 (stereo not given)
EC50: > 35 µM (inactive)

Cc1cccc(NC(=O)CSc2nnc(CNC(=O)c3ccc(S(=O)(=O)N(C)C)cc3)n2-c2ccc(F)cc2)c1
EC50: > 35 µM (inactive)

O=C(N/N=C/c1ccco1)c1cc(-c2cccc(Br)c2)nc2ccccc12
EC50: > 35 µM (inactive)

O=C(NCCc1ccccc1)C(c1cccs1)N(C(=O)CCl)c1ccc(Cl)cc1 (stereo not given)
EC50: 7.95 µM

Oc1cc2c(cc1CN1CCN(c3ncccn3)CC1)OCO2
EC50: > 35 µM (inactive)

O=C(NCc1cccs1)C(=O)NCC1OCCCN1S(=O)(=O)c1ccccc1 (stereo not given)
EC50: > 35 µM (inactive)

CCOC(=O)COc1ccc(S(=O)(=O)N2CCN(c3ccc(OC)cc3)CC2)cc1
EC50: > 35 µM (inactive)

Cc1ccc(C(=O)Nc2nnc(C3=COCCO3)o2)cc1C
EC50: > 35 µM (inactive)

CCOc1ccc(N2CC(C(=O)NNC(=O)c3ccc(Br)cc3)CC2=O)cc1 (stereo not given)
EC50: > 35 µM (inactive)

O=C(NCc1ccco1)/C(=C/c1ccc([N+](=O)[O-])cc1)NC(=O)c1ccco1
EC50: > 35 µM (inactive)

O=C(N/N=C\c1ccc(CN(Cc2ccc(Cl)cc2)S(=O)(=O)c2ccccc2)o1)C(=O)Nc1ccc(F)cc1
EC50: > 35 µM (inactive)

CSc1ccccc1NC(=O)CCn1c(=O)sc2ccccc21
EC50: > 35 µM (inactive)

CCC(C)[C@@H](C(=O)NCC1CCC(C(=O)O)CC1)n1nnc2ccccc2c1=O (stereo not given in full)
EC50: > 35 µM (inactive)

CCn1c(SCC(=O)c2ccccc2)nnc1-c1cc2cc(Br)ccc2o1
EC50: > 35 µM (inactive)

Nc1ccc(N2CCN(Cc3ccccc3Cl)CC2)c(Cl)c1
EC50: > 35 µM (inactive)

CN1CCN(CCCNC(=O)c2ccc3c(Cl)c4c(nc3c2)CCCC4)CC1
EC50: > 35 µM (inactive)

CCCn1c(SCC(=O)NC)nc2sc3c(c2c1=O)CCC3
EC50: > 35 µM (inactive)

CC1=NOC(=O)/C1=C\c1ccc(-c2cccc(Cl)c2)o1
EC50: > 35 µM (inactive)

Cc1cc(C)cc(COn2ccnc2)c1
EC50: > 35 µM (inactive)

O=C(Cc1ccc(-n2cccc2)cc1)NC1CCCCC1
EC50: > 35 µM (inactive)

CC(C)(C)C(=O)CNS(=O)(=O)c1ccc(S(=O)(=O)NC2CC2)cc1
EC50: > 35 µM (inactive)

Cc1cc(C)cc(C(=O)N2CC(=O)Nc3ccccc32)c1
EC50: > 35 µM (inactive)

C=CCNC(=O)c1ccccc1NC(=O)COc1ccccc1
EC50: > 35 µM (inactive)

Cc1n[nH]c(C)c1S(=O)(=O)N1CCC(C(=O)O)CC1
EC50: > 35 µM (inactive)

Cn1cnnc1SCC(=O)Nc1ccc(F)cc1
EC50: > 35 µM (inactive)

Cc1cc(/C=C(/C#N)C(=O)O)c(C)n1-c1cccc2ccccc12
EC50: > 35 µM (inactive)

FC(F)(F)c1cccc(Cc2noc(CN3CCCC(OCc4ccccn4)C3)n2)c1 (stereo not given)
EC50: > 35 µM (inactive)

COc1ccc(CCNC(=O)C2=COCCO2)cc1
EC50: > 35 µM (inactive)

CC(Oc1ccc(-c2nccc(-c3ccccn3)n2)cc1)C(=O)NN (stereo not given)
EC50: > 35 µM (inactive)

CC(=O)Nc1ccc(SC[C@H](Cc2ccccc2)N2CC[C@@H](C(C)(C)C)CCC2=O)cc1
EC50: > 35 µM (inactive)

CCc1ccc(CN/C=C/C(=O)c2ccc(Br)cc2)cc1
EC50: > 35 µM (inactive)

COc1ccc(S(=O)(=O)N2CCCCC2C)cc1 (stereo not given)
EC50: > 35 µM (inactive)

O=C(Cn1ncc(Cl)c(Cl)c1=O)NCC1CCCCC1
EC50: > 35 µM (inactive)

O=C(Cn1c(=O)c2cccn2c2cccnc21)N1CCN(c2ccc(Cl)cc2)CC1
EC50: > 35 µM (inactive)

Cc1cccc(NC(=S)NCCc2ccc(F)cc2)c1C
EC50: > 35 µM (inactive)

CCN1CCN(c2nc3ccccc3nc2NS(=O)(=O)c2ccc(NC(C)=O)cc2)CC1
EC50: > 35 µM (inactive)

COC(=O)CSc1nc(N)c2c3c(sc2n1)C(c1ccccc1)SC(c1ccccc1)C3 (stereo not given)
EC50: > 35 µM (inactive)

O=C(COc1ccc(Cl)cc1)NCc1nnc(SCC(=O)Nc2ccccc2F)o1
EC50: > 35 µM (inactive)

CC1Cc2ccccc2N1C(=O)C1CCN(S(=O)(=O)Cc2ccccc2)CC1 (stereo not given)
EC50: > 35 µM (inactive)

O=C(Nc1ccccc1)N(Cc1ccc(Cl)cc1)CC(O)C(F)(F)F (stereo not given)
EC50: > 35 µM (inactive)

O=C(N/N=C/c1ccc(Cl)cc1Cl)c1ccc2nc[nH]c2c1
EC50: > 35 µM (inactive)

O=c1c(Cl)c(Cl)cnn1Cc1ccccc1Cl
EC50: > 35 µM (inactive)

CC(=O)OC(C)(C)/C=C/C(=O)C(C)(O)C1[C@H](O)C[C@@]2(C)C3CC=C4C(CC[C@@H](O)C4(C)C)[C@]3(CO)C(=O)C[C@]12C (stereo not given in full)
EC50: > 35 µM (inactive)

Cc1nc(-c2ccc(F)cc2)c(CC(=O)N(C)CC(=O)Nc2ccccc2Cl)s1
EC50: > 35 µM (inactive)

COc1ccc(S(=O)(=O)N(C)C[C@H]2Oc3ccc(NC(=O)Nc4c(C)noc4C)cc3C(=O)N([C@H](C)CO)C[C@@H]2C)cc1
EC50: > 35 µM (inactive)
